Read-outs that look alike come from different tables or passages of the source.
Experiments:
[1] = tested on: ethanol-induced gastric ulcer; assay: Protective effect on ethanol-induced gastric ulcer in rats; format: in vivo, rat (male Sprague-Dawley); details: 10 mg/kg p.o.; for Ulcer index: mean ± S.E.; for inhibition in vivo at 10 mg/kg: Rattus norvegicus, po, 1 h
Description: 1.2. Protective Effect on Ethanol-induced Gastric Ulcer in Rats
Male Sprague-Dawley rats weighing 300-400 g were used in groups of 4-36. After fasting overnight, the animals were given orally the compounds. Thirty minutes later they received absolute ethanol (1 ml/body) orally and were sacrificed after 60 minutes. The stomach was removed and examined for erosions. The ulcer index was obtained in the same way as under 1.1.

in vivo [2] = details: mouse, mice
Excerpt: The intravenous or intraperitoneal LD50 values of the compounds of this invention and the reference compound (propentofylline) for mice are shown in Table 4.

[3] = tested on: stress-induced gastric ulcer; assay: Protective effect on gastric ulcer induced by restraint plus water-immersion stress in rats; format: in vivo, rat (male Sprague-Dawley); details: for Ulcer index / inhibition in vivo at 10 mg/kg: 10 mg/kg p.o.; for Ulcer index: mean ± S.E.; for inhibition in vivo at 10 mg/kg: Rattus norvegicus, po
Description: 1.1. Protective Effect of Gastric Ulcer Induced by Restraint Plus Water-immersion Stress in Rats
Male Sprague-Dawley rats weighing 250-300 g were used in groups of 5-35. The animals were given the compounds by the oral route after fasting overnight. Immediately, under light ether anesthesia they were placed in a restraint box and immersed in water at 23° C. for 6 or 7 hours. Then the animals were sacrificed, and their stomachs were isolated, inflated with 8 ml of 1% formalin for 10 minutes, opened along the greater curvature, and examined for the presence of gastric erosions. The longest axis of each erosion induced on the glandular section of the stomach was measured, and the sum of the lengths was defined as an ulcer index.

peptic ulcer = details: Ter. Arkh. 57, 52-55, 1985; JP Laid-Open 225317/88; cited from earlier work
in vivo [4] = details: mouse, mice, oral, read-out: oral LC50
[5] = control distilled water (93.1 ± 8.9 mm)
[6] = ip, i.p., read-out: LD50 (intraperitoneal)
[7] = iv, i.v., read-out: LD50 (intravenous)
[8] = control distilled water (26.0 ± 2.2 mm)
[9] = control 10% EtOH (78.9 ± 8.5 mm)
[10] = control 10% EtOH (32.9 ± 3.3 mm)

SMILES | Ulcer index [1, 5] | inhibition in vivo at 10 mg/kg ([1]; vs. control distilled water) | LD50 (in vivo [2]; [7]) | Ulcer index [3, 8] | inhibition in vivo at 10 mg/kg ([3]; vs. control distilled water) | other results
CCCn1cnc2c1c(=O)n(CCCC(C)(O)CC)c(=O)n2C (stereo not drawn) [Compound 12] | 26.1 ± 10.8 mm | 72% | – | – | – | LD50 (in vivo [2]; [6]): 300 to 600 mg/kg
CCn1cnc2c1c(=O)n(CCCCC(C)(C)O)c(=O)n2CC [Compound 16, 3,7-Diethyl-1-(5-hydroxy-5-methylhexyl)-xanthine] | 17.0 ± 7.1 mm | 81.7% | > 200 mg/kg | 6.8 ± 1.6 mm | 73.8% | –
CC(=O)CCCCn1c(=O)c2c(ncn2C)n(C)c1=O [pentoxifylline] | – | – | – | – | – | antiulcer activity (in words, from literature) (peptic ulcer): antiulcer effects
CCOCn1cnc2c1c(=O)n(CCCCC(C)(C)O)c(=O)n2CC [Compound 18] | 16.8 ± 7.1 mm | 82% | > 200 mg/kg | 6.9 ± 2.1 mm | 73.5% | –
CCCn1c(=O)c2c(ncn2CCCCC(C)(C)O)n(C)c1=O [Compound 8] | – | – | 100 to 200 mg/kg | 12.1 ± 2.9 mm | 53.5% | –
CCCn1cnc2c1c(=O)n(CCCCCC(C)(C)O)c(=O)n2CC [Compound 14, 3-Ethyl-1-(6-hydroxy-6-methylheptyl)-7-propylxanthine] | – | – | > 200 mg/kg | – | – | Ulcer index [1, 9]: 3.7 ± 1.1 mm; inhibition in vivo at 10 mg/kg ([1]; listed under control 10% EtOH): 95.3%; Ulcer index [3, 10]: 4.8 ± 1.7 mm; inhibition in vivo at 10 mg/kg ([3]; vs. control 10% EtOH): 85.4%
CCCn1cnc2c1c(=O)n(CCCCC(C)(C)O)c(=O)n2CC [Compound 1] | 12.0 ± 6.9 mm | 87.1% | 100 to 200 mg/kg | 8.7 ± 1.6 mm | 66.5% | –
C=CCCn1c(=O)c2c(ncn2CCCCC(C)(C)O)n(CC)c1=O [Compound 21, 1-(3-Butenyl)-3-ethyl-7-(5-hydroxy-5-methylhexyl)-3-xanthine] | 19.2 ± 9.2 mm | 79.4% | – | – | – | –
CCn1c(=O)n(CCCCC(C)(C)O)c(=O)c2c1ncn2C [Compound 2] | 23.5 ± 7.0 mm | 74.8% | > 200 mg/kg | 6.5 ± 1.6 mm | 75% | times more effective than propentofylline in improving stress-induced gastric ulcers ([3]; stress-induced gastric ulcers): 2.5 times
Cn1c(=O)n(CCCCC(C)(C)O)c(=O)c2c1ncn2CCC(O)CO (stereo not drawn) [Compound 9] | – | – | > 100 mg/kg | 17.8 ± 3.3 mm | 31.5% | –
CCCCn1cnc2c1c(=O)n(CCCCC(C)(C)O)c(=O)n2CC [Compound 17, 7-Butyl-3-ethyl-1-(5-hydroxy-5-methylhexyl)-xanthine] | – | – | – | – | – | Ulcer index [1, 9]: 13.0 ± 8.3 mm; inhibition in vivo at 10 mg/kg ([1]; listed under control 10% EtOH): 83.5%; LD50 (in vivo [2]; [6]): > 600 mg/kg; Ulcer index [3, 10]: 12.5 ± 3.3 mm; inhibition in vivo at 10 mg/kg ([3]; vs. control 10% EtOH): 62%
CCCn1cnc2c1c(=O)n(CCCCCC(C)(C)O)c(=O)n2C [Compound 11] | – | – | – | 16.0 ± 3.8 mm | 38.5% | LD50 (in vivo [2]; [6]): 150 to 300 mg/kg
CCn1c(=O)n(CCCCCC(C)(C)O)c(=O)c2c1ncn2C [Compound 4] | 21.2 ± 8.4 mm | 77.2% | 100 to 200 mg/kg | 10.6 ± 1.8 mm | 59.2% | –
CCCn1cnc2c1c(=O)n(CCCCC(C)=O)c(=O)n2C [Compound 22, 1-(5'-oxohexyl)-3-methyl-7-propyl xanthine, reference compound] | – | – | – | 18.4 ± 3.0 mm | 29.2% | antiulcer activity (in words, from literature) (peptic ulcer): superior to that of pentoxifylline; Ulcer index [1, 9]: 34.7 ± 8.4 mm; inhibition in vivo at 10 mg/kg ([1]; listed under control 10% EtOH): 62.7%
Cn1c(=O)n(CCCCC(C)(C)O)c(=O)c2[nH]cnc21 [Compound 5] | – | – | > 200 mg/kg | 7.5 ± 2.0 mm | 71.2% | LD50 (in vivo [4]): > 2500 mg/kg
Cn1cnc2c1c(=O)n(CCCCC(C)(C)O)c(=O)n2C [Compound 7] | – | – | > 200 mg/kg | 15.8 ± 4.4 mm | 39.2% | –
CCCn1cnc2c1c(=O)n(CCCC(C)(C)O)c(=O)n2CC [Compound 3] | – | – | > 200 mg/kg | 12.8 ± 2.5 mm | 50.8% | –
C=CCn1cnc2c1c(=O)n(CCCCC(C)(C)O)c(=O)n2C [Compound 20, 7-Allyl-1-(5-hydroxy-5-methylhexyl)-3-methylxanthine] | – | – | > 100 mg/kg | 10.6 ± 3.0 mm | 59.2% | –
CCOCCn1c(=O)c2c(ncn2CCCCC(C)(C)O)n(C)c1=O [Compound 10] | – | – | > 200 mg/kg | 17.8 ± 3.3 mm | 31.5% | –
C=CCn1cnc2c1c(=O)n(CCCCC(C)(C)O)c(=O)n2CC [Compound 19, 7-Allyl-3-ethyl-1-(5-hydroxy-5-methylhexyl)-xanthine] | 5.2 ± 2.0 mm | 94.4% | > 100 mg/kg | 10.2 ± 2.4 mm | 60.8% | –
CCn1c(=O)n(CCCCCC(C)(C)O)c(=O)c2c1ncn2C(C)C [Compound 15, 3-Ethyl-1-(6-hydroxy-6-methylheptyl)-7-isopropylxanthine] | – | – | – | – | – | Ulcer index [1, 9]: 4.2 ± 2.2 mm; inhibition in vivo at 10 mg/kg ([1]; listed under control 10% EtOH): 94.7%; LD50 (in vivo [2]; [6]): > 600 mg/kg; Ulcer index [3, 10]: 6.6 ± 1.6 mm; inhibition in vivo at 10 mg/kg ([3]; vs. control 10% EtOH): 79.9%
CCn1cnc2c1c(=O)n(CCCCCC(C)(C)O)c(=O)n2CC [Compound 13, 3,7-diethyl-1-(6-hydroxy-6-methylheptyl)-xanthine] | 15.7 ± 9.4 mm | 83.1% | > 200 mg/kg | 5.0 ± 1.0 mm | 80.8% | –
C=CCCn1cnc2c1c(=O)n(CCCCC(C)(C)O)c(=O)n2C [Compound 6] | – | – | – | – | – | LD50 (in vivo [2]; [6]): 150 to 300 mg/kg; Ulcer index [3, 10]: 17.4 ± 4.5 mm; inhibition in vivo at 10 mg/kg ([3]; vs. control 10% EtOH): 47.1%

— US5109003A, “Method for the treatment of peptic ulcer disease” (Hoechst Japan Limited, priority 1989, dated 1992)
